The text below walks through data of US10207991B2, “Isoindoline compositions and methods for treating neurodegenerative disease” (priority 2014, dated 2019).

This data set can be described thus: Mouse liver microsome (MLM) stability. The class given is in vitro ADME. On the procedure: A first pharmacokinetic study was performed in microsomes of mice mouse liver microsomes, MLM) by a commercial contract research organization. The studies were performed according to Obach, R. S et al. (1997) J. Pharmacol. Exp. Ther., 283: 46-58, which is incorporated herein by reference.
A general note: Liver microsomes are vesicles of endoplasmic reticulum, rich in cytochrome P450 enzymes.
On to `COc1cc(CCC(C)(C)N2Cc3cccc(C(=O)N4CCOCC4)c3C2)ccc1O` [compound 80], for which the “Mouse liver microsomes, MLM t½” value was 45 min.
For `C[C@H](CCc1ccc(O)c(OC(F)(F)F)c1)N1Cc2cc3c(cc2C1)OCO3` [compound 24], the “Mouse liver microsomes, MLM t½” value is 5 min.
In the case of `COc1cc(CCC(C)(C)N2Cc3cccc(S(C)(=O)=O)c3C2)ccc1O` [compound 64], the “Mouse liver microsomes, MLM t½” value was determined as 52 min.
Turning to `CC(C)(CCc1ccc(O)c(OC(F)(F)F)c1)N1Cc2cccc(S(C)(=O)=O)c2C1` [compound 67], the “Mouse liver microsomes, MLM t½” value is on record as 39 min.
Then `C[C@H](CCc1ccc(Cl)c(Cl)c1)N1Cc2ccc(F)cc2C1.Cl` [compound 12], with 13 min; and `C[C@H](CCc1ccc(O)c(OC(F)(F)F)c1)N1Cc2ccc(F)cc2C1` [compound 31], with 6 min; and `CC(C)COc1cc(CCC(C)(C)N2Cc3cccc(F)c3C2)ccc1O` [compound 88], with 28 min.
As for `C[C@H](CCc1ccc(Cl)c(Cl)c1)N1Cc2cc(Cl)c(Cl)cc2C1` [compound 5], the “Mouse liver microsomes, MLM t½” value is 53 min.
As for `CC(C)(CCc1ccc(F)cc1)N1Cc2cc3c(cc2C1)OCO3` [compound 36], the “Mouse liver microsomes, MLM t½” value is reported as 47 min.
Then `COc1cc(CCC(C)N2Cc3ccc4ccccc4c3C2)ccc1O.Cl` (stereo not drawn) [compound 17], with 10 min; and `COc1cc(CCC(C)(C)N2Cc3ccc(F)cc3C2)ccc1OC(=O)N(C)C` [compound 50], with 33 min; and `CC(C)(CCc1ccc(O)c(OC(F)(F)F)c1)N1Cc2cccc(F)c2C1` [compound 54], with 12 min.
The figure for `C[C@H](CCc1ccc(OC(=O)N(C)C)c(OC(F)(F)F)c1)N1Cc2cccc(F)c2C1` [compound 41] is 9 min; for `COc1cc(CC[C@@H](C)N2Cc3cccc(S(C)(=O)=O)c3C2)ccc1O` [compound 65] it is 41 min; for `CN(C)C(=O)c1cccc2c1CN(C(C)(C)CCc1ccc(O)c(OC(C)(C)C)c1)C2` [compound 59] it is 8 min.
The figure for `COc1cc(CCC(C)(C)N2Cc3cccc(C(=O)N4CCN(C)CC4)c3C2)ccc1O` [compound 82] is 27 min.
Consider `CC(C)(C)Oc1cc(CCC(C)(C)N2Cc3cccc(S(C)(=O)=O)c3C2)ccc1O` [compound 66], for which the “Mouse liver microsomes, MLM t½” value came to 10 min.
`COc1cc(CCC(C)(C)N2Cc3cc4c(cc3C2)OCO4)ccc1OCCO` [compound 47]: the “Mouse liver microsomes, MLM t½” value amounted to 91 min.
Then `C[C@H](CCc1ccc(F)cc1)N1Cc2cccc(F)c2C1` [compound 21], with 7 min; and `CC(C)Oc1cc(CC[C@@H](C)N2Cc3ccc(S(C)(=O)=O)cc3C2)ccc1O` [compound 69], with 75 min; and `CC(C)Oc1ccc(CC[C@@H](C)N2Cc3cc4c(cc3C2)OCO4)cc1OC(C)C` [compound 40], with 6 min.
As for `CC(C)(CCc1ccc(O)c(OC(F)(F)F)c1)N1Cc2cccc(C(=O)N3CCOCC3)c2C1` [compound 94], the “Mouse liver microsomes, MLM t½” value turned out to be 14 min.
The figure for `COc1cc(CC[C@@H](C)N2Cc3ccc(C(F)(F)F)cc3C2)ccc1O` [compound 2] is 28 min; for `COc1cc(CC[C@@H](C)N2Cc3cccc(F)c3C2)ccc1O` [compound 8] it is 16 min.
With `COCCN(C)C(=O)c1cccc2c1CN(C(C)(C)CCc1ccc(O)c(OC)c1)C2` [compound 86], the “Mouse liver microsomes, MLM t½” value amounted to 19 min.
The figure for `COc1cc(CCC(C)(C)N2Cc3cccc(F)c3C2)ccc1OCCO` [compound 44] is 29 min; for `CC(C)Oc1cc(CCC(C)(C)N2Cc3ccc(S(C)(=O)=O)cc3C2)ccc1O` [compound 70] it is 79 min; for `CN(C)C(=O)c1cccc2c1CN(C(C)(C)CCc1ccc(O)c(OC(F)(F)F)c1)C2` [compound 57] it is 26 min.
Then `COc1cc(CC[C@@H](C)N2Cc3ccc(Cl)cc3C2)ccc1O` [compound 1], with 11 min; and `COc1cc(CC[C@@H](C)N2Cc3cc4c(cc3C2)OCO4)ccc1OCCO` [compound 52], with 97 min.
As to `CN1CCN(C(=O)c2cccc3c2CN(C(C)(C)CCc2ccc(O)c(OC(F)(F)F)c2)C3)CC1` [compound 93], the “Mouse liver microsomes, MLM t½” value turned out to be 5 min.
The figure for `C[C@H](CCc1ccc(Cl)c(Cl)c1)N1Cc2cccc(F)c2C1` [compound 9] is 12 min; for `COc1cc(CCC(C)(C)N2Cc3cccc(C(=O)N(C)CCN(C)C)c3C2)ccc1O` [compound 81] it is 88 min.
`COC[C@H](CCc1ccc(Cl)c(Cl)c1)N1Cc2ccc(F)cc2C1` [compound 46]: the “Mouse liver microsomes, MLM t½” value is 5 min.
Take `CC(C)COc1cc(CCC(C)(C)N2Cc3cccc(C(=O)N(C)C)c3C2)ccc1O` [compound 89]: the “Mouse liver microsomes, MLM t½” value is 17 min.
Take `CC(C)(CCc1ccc(F)cc1)N1Cc2ccc(F)cc2C1` [compound 35]: the “Mouse liver microsomes, MLM t½” value turned out to be 9 min.
For `COc1cc(CCC(C)(C)N2Cc3ccc(F)cc3C2)ccc1OCCO` [compound 45], the “Mouse liver microsomes, MLM t½” value was found to be 96 min.
The figure for `CC(C)Oc1cc(CC[C@@H](C)N2Cc3ccc(F)cc3C2)ccc1O` [compound 37] is 5 min; for `COc1cc2c(cc1OC)CN([C@@H](C)CCc1ccc(Cl)c(Cl)c1)C2` [compound 20] it is 43 min.
For the molecule `Cc1ccc2c(c1)CN([C@H](C)CCc1ccc(Cl)c(Cl)c1)C2` [compound 13], the “Mouse liver microsomes, MLM t½” value stood at 3 min.
Then `C[C@H](CCc1ccc(F)cc1)N1Cc2ccc(F)cc2C1` [compound 22], with 7 min.
The figure for `C[C@H](CCc1ccc(O)c(OC(C)(C)C)c1)N1Cc2cccc(F)c2C1` [60B] is 8 min.
Take `CC(C)(CCc1ccc(F)cc1)N1Cc2cccc(F)c2C1` [compound 33]: the “Mouse liver microsomes, MLM t½” value was determined as 9 min.
On to `COc1cc2c(cc1OC)CN([C@H](C)CCc1ccc(Cl)c(Cl)c1)C2` [compound 11], for which the “Mouse liver microsomes, MLM t½” value came to 61 min.
The figure for `C[C@H](CCc1ccc(Cl)c(Cl)c1)N1Cc2cccc(Cl)c2C1.Cl` [compound 16] is 12 min; for `CC(C)Oc1cc(CC[C@@H](C)N2Cc3cc4c(cc3C2)OCO4)ccc1O` [compound 25] it is 4 min; for `CC(C)COc1cc(CCC(C)(C)N2Cc3ccc(S(C)(=O)=O)cc3C2)ccc1O` [compound 87] it is 86 min.
For the molecule `CC(C)(CCc1ccc(O)c(OC(F)(F)F)c1)N1Cc2c(F)ccc(F)c2C1` [compound 55], the “Mouse liver microsomes, MLM t½” value turned out to be 34 min.
Then `COc1cc2c(cc1OC)CN(C(C)(C)CCc1ccc(F)cc1)C2` [compound 34], with 46 min.
On to `COc1ccc2c(c1)CN([C@H](C)CCc1ccc(Cl)c(Cl)c1)C2.Cl` [compound 15], for which the “Mouse liver microsomes, MLM t½” value is on record as 15 min.
Then `CC(C)COc1cc(CCC(C)(C)N2Cc3cccc(C(=O)N4CCN(C)CC4)c3C2)ccc1O` [compound 91], with 6 min; and `C[C@H](CCc1ccc(Cl)c(Cl)c1)N1Cc2ccc(C(F)(F)F)cc2C1` [compound 4], with 40 min.
Consider `CC(C)Oc1ccc(CCC(C)(C)N2Cc3ccc(F)cc3C2)cc1OC(C)C` [compound 42], for which the “Mouse liver microsomes, MLM t½” value is recorded as 14 min.
As to `CC(C)Oc1cc(CC[C@@H](C)N2Cc3cccc(F)c3C2)ccc1O` [compound 26], the “Mouse liver microsomes, MLM t½” value is recorded as 4 min.
For `CC(=O)N1CCN(C(=O)c2cccc3c2CN(C(C)(C)CCc2ccc(O)c(OCC(C)C)c2)C3)CC1` [compound 92], the “Mouse liver microsomes, MLM t½” value was determined as 7 min.
Turning to `C[C@H](CCc1ccc(O)c(OC(C)(C)C)c1)N1Cc2c(F)ccc(F)c2C1` [60A], the “Mouse liver microsomes, MLM t½” value turned out to be 5 min.
The figure for `COc1cc(CC[C@@H](C)N2Cc3cc4c(cc3C2)OCO4)ccc1O` [compound 6] is 20 min; for `CC(C)Oc1cc(CCC(C)(C)N2Cc3cccc(F)c3C2)ccc1O` [compound 28] it is 4 min; for `C[C@H](CCc1ccc(F)cc1)N1Cc2cc3c(cc2C1)OCO3` [compound 23] it is 5 min.
In the case of `COc1cc(CC[C@@H](C)N2Cc3cccc(F)c3C2)ccc1OCCO` [compound 51], the “Mouse liver microsomes, MLM t½” value stood at 66 min.
Turning to `COc1cc(CCC(C)(C)N2Cc3cccc(C(=O)NCCN(C)C)c3C2)ccc1O` [compound 78], the “Mouse liver microsomes, MLM t½” value was found to be 450 min.
On to `COc1cc(CC[C@@H](C)N2Cc3cc(Cl)c(Cl)cc3C2)ccc1O` [compound 3], for which the “Mouse liver microsomes, MLM t½” value is 21 min.
For the molecule `CC(C)COc1cc(CCC(C)(C)N2Cc3cccc(C(=O)N4CCOCC4)c3C2)ccc1O` [compound 90], the “Mouse liver microsomes, MLM t½” value was determined as 9 min.
The figure for `C[C@H](CCc1ccc(Cl)c(Cl)c1)N1Cc2cc3c(cc2C1)OCO3` [compound 10] is 8 min.
The figure for `CC(C)(C)Oc1cc(CCC(C)(C)N2Cc3c(F)ccc(F)c3C2)ccc1O` [compound 74] is 21 min; for `C[C@H](CCc1ccc(OC(=O)N(C)C)c(OC(F)(F)F)c1)N1Cc2ccc(F)cc2C1` [compound 43] it is 5 min.
The figure for `C[C@H](CCc1ccc(Cl)c(Cl)c1)N1Cc2ccc3ccccc3c2C1` [compound 19] is 25 min; for `CC(C)(C)Oc1cc(CCC(C)(C)N2Cc3ccc(S(C)(=O)=O)cc3C2)ccc1O` [compound 62] it is 45 min; for `COc1cc(CCC(C)(C)N2Cc3cccc(F)c3C2)ccc1O` [compound 53] it is 21 min.
